Series [1] in a line: Hepatic clearance in human liver microsomes after 1 hr by LC-MS/MS analysis. The format is ADME.
A short description of series [2]: Oral bioavailability in CD1 mouse blood at 25 mg/kg after 8 hrs by LC/MS/MS. The format is ADME, organism-based. Particulars: whole blood.
Series [3] in a line: AUC (0 to 8 hrs) in CD1 mouse blood at 25 mg/kg, po after 8 hrs by LC/MS/MS. The conditions noted are these: whole blood. Details: time < 8 hr, dose 25 mg/kg, route oral. The format is ADME, organism-based.
Series [4] is described as follows: Plasma clearance in cynomolgus monkey. The format is ADME, organism-based, Macaca fascicularis.
Series [5] is described as follows: Clearance in CD1 mouse blood at 2 mg/kg, iv after 8 hrs by LC/MS/MS. The format is ADME, organism-based. Particulars: whole blood.
A short description of series [6]: Half life in CD1 mouse blood at 2 mg/kg, iv after 8 hrs by LC/MS/MS. The format is ADME, organism-based. Particulars: whole blood.
Series [7] is described as follows: Oral bioavailability in cynomolgus monkey. The format is ADME, organism-based, Macaca fascicularis. The conditions noted are these: in vivo.

Regarding `CNc1ncc2cc(-c3ccc(-c4cccc(C)n4)cc3Cl)c(=O)n(C[C@H]3OC[C@H](NC)CO3)c2n1`, in series [1], the CLhep predicted is 13.8 mL/min/kg. Take `CNc1ncc2cc(-c3ccc(-c4cccc(C)n4)cc3Cl)c(=O)n(C[C@@H]3CCNCC3(F)F)c2n1`: in series [1], the CLhep predicted is 17.8 mL/min/kg. Still for that read-out and setting: next, `CCNc1ncc2cc(-c3ccc(-c4cncc(C)n4)cc3Cl)c(=O)n(CC3CCNC(=O)C3)c2n1` (centres undefined): 12.5 mL/min/kg; `CCNc1ncc2cc(-c3ccc(-c4cncc(C)n4)cc3Cl)c(=O)n(C[C@H]3OC[C@H](N)CO3)c2n1`: 9.6 mL/min/kg. Still for that read-out and setting: in the case of `CNc1ncc2cc(-c3ccc(-c4cccc(C)n4)cc3Cl)c(=O)n(CC3COC4(CNC4)OC3)c2n1` it was 11.6 mL/min/kg. As for `CNc1ncc2cc(-c3ccc(-c4cccc(C)n4)cc3Cl)c(=O)n(C[C@H]3OC[C@H](N)CO3)c2n1`, the bioavailability was 80% in series [2] and 72% in series [7]. The molecule also returned an AUC(0-t) at 8 h in series [3] of 30 µM·h. Also, the CLhep predicted in series [1] is 11.6 mL/min/kg. In addition, the values for the clearance in series [4] and in series [5] were 3.4 mL/min/kg and 24.2 mL/min/kg, respectively. The molecule further gave a half-life in series [6] of 53 min. For `CCNc1ncc2cc(-c3ccc(-c4cncc(C)n4)cc3Cl)c(=O)n(CCCO)c2n1`, in series [1], the CLhep predicted is 14.7 mL/min/kg. For `CNc1ncc2cc(-c3ccc(-c4cncc(C)n4)cc3Cl)c(=O)n(C[C@H]3CNCCO3)c2n1`, the CLhep predicted in series [1] is 10.7 mL/min/kg.

The values above are taken from ChEMBL document CHEMBL3769359, “Design of Selective PAK1 Inhibitor G-5555: Improving Properties by Employing an Unorthodox Low-pK a Polar Moiety” (ACS Med Chem Lett, 2015).
